Experimental data published in US20250361230A1, “LATS Inhibitors and Uses Thereof” (The USA, as Represented by the Secretary, Dept. of Heath …, priority 2022, published 2025).
Where two headings read alike, the source gives them in different places.

Tests used:
Type in all cases: biochemical
LATS1 = target: T1, LATS1 (Homo sapiens, UniProt O95835); assay: RBC HotSpot kinase assay (33P-ATP, P81 filter-binding), LATS1
T1 sequence (O95835 1-1130): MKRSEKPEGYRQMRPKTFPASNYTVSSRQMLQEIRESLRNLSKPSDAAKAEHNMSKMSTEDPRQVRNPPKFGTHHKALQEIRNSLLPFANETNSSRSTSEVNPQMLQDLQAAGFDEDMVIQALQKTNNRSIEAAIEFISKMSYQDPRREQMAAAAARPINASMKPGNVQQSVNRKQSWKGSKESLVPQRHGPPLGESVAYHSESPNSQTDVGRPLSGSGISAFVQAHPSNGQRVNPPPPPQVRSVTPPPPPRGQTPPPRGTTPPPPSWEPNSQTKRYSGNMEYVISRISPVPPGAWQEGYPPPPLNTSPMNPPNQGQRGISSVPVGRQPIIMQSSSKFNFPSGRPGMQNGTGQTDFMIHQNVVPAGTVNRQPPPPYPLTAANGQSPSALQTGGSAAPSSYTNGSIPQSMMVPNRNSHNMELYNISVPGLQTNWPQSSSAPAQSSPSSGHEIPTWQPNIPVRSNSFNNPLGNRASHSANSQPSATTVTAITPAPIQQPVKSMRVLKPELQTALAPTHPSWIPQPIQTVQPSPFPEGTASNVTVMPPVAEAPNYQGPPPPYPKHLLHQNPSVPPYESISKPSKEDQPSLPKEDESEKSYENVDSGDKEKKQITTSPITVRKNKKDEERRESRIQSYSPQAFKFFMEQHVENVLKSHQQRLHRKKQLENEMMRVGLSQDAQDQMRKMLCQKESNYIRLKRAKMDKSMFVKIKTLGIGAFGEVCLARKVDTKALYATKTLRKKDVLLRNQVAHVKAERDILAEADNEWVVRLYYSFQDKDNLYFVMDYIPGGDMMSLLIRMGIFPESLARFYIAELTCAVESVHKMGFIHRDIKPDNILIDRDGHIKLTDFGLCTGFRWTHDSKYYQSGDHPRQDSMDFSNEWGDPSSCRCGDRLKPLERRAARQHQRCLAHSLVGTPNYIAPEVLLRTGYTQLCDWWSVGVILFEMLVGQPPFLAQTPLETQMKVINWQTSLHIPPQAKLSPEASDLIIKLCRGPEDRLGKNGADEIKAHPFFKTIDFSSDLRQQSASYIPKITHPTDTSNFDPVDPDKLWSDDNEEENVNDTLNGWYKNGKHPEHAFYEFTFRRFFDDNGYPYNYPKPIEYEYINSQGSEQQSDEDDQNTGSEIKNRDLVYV
In short: (§1)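 IC50 in nM was derived from 10-point, single-replicate titrations. Read-out was radiometric P81 filter binding following a 2 h room-temperature reaction with 33P-ATP, after 20 min compound preincubation.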

LATS2 = target: T2, LATS2 (Homo sapiens, UniProt Q9NRM7); assay: RBC HotSpot kinase assay (33P-ATP, P81 filter-binding), LATS2
T2 sequence (Q9NRM7 1-1088): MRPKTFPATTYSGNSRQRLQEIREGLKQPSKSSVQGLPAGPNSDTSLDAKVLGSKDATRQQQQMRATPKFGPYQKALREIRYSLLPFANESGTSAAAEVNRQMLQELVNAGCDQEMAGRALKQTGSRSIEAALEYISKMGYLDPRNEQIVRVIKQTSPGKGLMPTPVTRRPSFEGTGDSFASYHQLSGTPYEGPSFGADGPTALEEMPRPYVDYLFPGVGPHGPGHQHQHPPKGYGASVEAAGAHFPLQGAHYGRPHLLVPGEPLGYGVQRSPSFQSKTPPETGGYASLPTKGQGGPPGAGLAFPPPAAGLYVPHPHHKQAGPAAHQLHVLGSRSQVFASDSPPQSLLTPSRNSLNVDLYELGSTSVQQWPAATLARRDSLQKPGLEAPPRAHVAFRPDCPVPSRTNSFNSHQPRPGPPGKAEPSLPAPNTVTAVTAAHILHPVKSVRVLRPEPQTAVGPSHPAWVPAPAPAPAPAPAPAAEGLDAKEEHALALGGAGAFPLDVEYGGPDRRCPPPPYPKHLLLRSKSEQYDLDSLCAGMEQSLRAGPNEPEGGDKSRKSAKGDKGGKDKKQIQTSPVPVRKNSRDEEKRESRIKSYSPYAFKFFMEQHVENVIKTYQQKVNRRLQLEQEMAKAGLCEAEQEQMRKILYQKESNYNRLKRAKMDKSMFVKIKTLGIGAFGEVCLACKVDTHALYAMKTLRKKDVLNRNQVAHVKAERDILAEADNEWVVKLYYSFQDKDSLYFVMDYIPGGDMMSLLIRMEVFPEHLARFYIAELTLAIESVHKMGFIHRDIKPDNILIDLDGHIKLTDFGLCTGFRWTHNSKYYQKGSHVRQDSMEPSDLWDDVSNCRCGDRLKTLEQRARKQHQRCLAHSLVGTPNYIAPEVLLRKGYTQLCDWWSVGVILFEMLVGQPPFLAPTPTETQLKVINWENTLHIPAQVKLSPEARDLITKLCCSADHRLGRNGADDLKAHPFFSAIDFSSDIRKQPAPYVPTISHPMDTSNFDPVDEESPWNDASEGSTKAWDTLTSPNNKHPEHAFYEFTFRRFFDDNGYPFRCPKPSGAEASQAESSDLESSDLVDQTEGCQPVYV
In short: as §1

AKT = AKT (Homo sapiens, UniProt P31749); assay: RBC HotSpot kinase assay (33P-ATP, P81 filter-binding), AKT
Chain of AKT (P31749 whole entry): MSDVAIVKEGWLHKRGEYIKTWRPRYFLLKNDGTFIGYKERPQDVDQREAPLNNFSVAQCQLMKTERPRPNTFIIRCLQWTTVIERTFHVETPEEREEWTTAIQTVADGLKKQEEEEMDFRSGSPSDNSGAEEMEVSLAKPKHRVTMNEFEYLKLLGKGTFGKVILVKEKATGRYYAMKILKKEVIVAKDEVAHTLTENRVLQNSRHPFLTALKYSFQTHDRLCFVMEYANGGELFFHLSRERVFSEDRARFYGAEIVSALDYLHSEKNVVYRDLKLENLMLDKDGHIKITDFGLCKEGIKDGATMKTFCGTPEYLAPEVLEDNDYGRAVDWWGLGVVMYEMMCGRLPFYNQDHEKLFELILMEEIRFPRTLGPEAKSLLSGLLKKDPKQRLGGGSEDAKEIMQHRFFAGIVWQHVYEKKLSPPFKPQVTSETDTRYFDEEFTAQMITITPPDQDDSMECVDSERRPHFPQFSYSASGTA
In short: as §1

[1] = Table 28, biochemical kinase assay, read-out: LATS1 IC50
[2] = Table 28, biochemical kinase assay, read-out: LATS2 IC50
[3] = Table 28, biochemical kinase assay, read-out: AKT IC50

Row | Compound | IC50 (LATS1; [1]) [µM] | IC50 (LATS2; [2]) [µM] | IC50 (AKT; [3]) [µM] | IC50 (LATS1) [µM] | IC50 (LATS2) [µM] | IC50 (AKT) [µM]
1 | COC(=O)c1c[nH]c2nccc(-c3ccc(C4(O)CCNCC4)cc3)c12 [Compound 112, methyl 4-(4-(4-hydroxypiperidin-4-yl)phenyl)-1H-pyrrolo[2,3-b]pyridine-3-carboxylate] | 0.0092 | 0.018 | 2.33 |  |  | 
2 | COC(=O)c1c[nH]c2nccc(-c3ccc(C4(O)C[C@H]5CC[C@@H](C4)N5)cc3)c12 (stereo partly drawn) [Compound 113, methyl 4-(4-((1R,5S)-3-hydroxy-8-azabicyclo[3.2.1]octan-3-yl)phenyl)-1H-pyrrolo[2,3-b]pyridine-3-carboxylate] | 0.0124 | 0.0655 | 1.06 |  |  | 
3 | OC1(c2ccc(-c3ccnc4[nH]cc(F)c34)cc2)CNC1 [Compound 116, 3-(4-(3-fluoro-1H-pyrrolo[2,3-b]pyridin-4-yl)phenyl)azetidin-3-ol] | 0.0092 | 0.0167 | 0.468 |  |  | 
4 | OC1(c2ccc(-c3ccnc4[nH]cc(Br)c34)cc2)CCNCC1 [Compound 117, 4-(4-(3-bromo-1H-pyrrolo[2,3-b]pyridin-4-yl)phenyl)piperidin-4-ol] | 0.0042 | 0.0032 | 0.24 |  |  | 
5 | OC1(c2ccc(-c3ccnc4[nH]cc(Br)c34)cc2)C[C@H]2CC[C@@H](C1)N2 (stereo partly drawn) [Compound 118, (1R,5S)-3-(4-(3-bromo-1H-pyrrolo[2,3-b]pyridin-4-yl)phenyl)-8-azabicyclo[3.2.1]octan-3-ol] | 0.0018 | 0.0009 | 0.014 |  |  | 
6 | OC1(c2ccc(-c3ccnc4[nH]cc(Br)c34)nc2)C[C@H]2CC[C@@H](C1)N2 (stereo partly drawn) [Compound 119, (1R,5S)-3-(6-(3-bromo-1H-pyrrolo[2,3-b]pyridin-4-yl)pyridin-3-yl)-8-azabicyclo[3.2.1]octan-3-ol] |  |  |  | 0.0298 | 0.184 | 2.59
7 | OC1(c2ccc(-c3ccnc4[nH]cc(Br)c34)cc2Cl)CNC1 [Compound 123, 3-(4-(3-bromo-1H-pyrrolo[2,3-b]pyridin-4-yl)-2-chlorophenyl)azetidin-3-ol] | 0.012 | 0.007 | 0.158 |  |  | 
8 | CC1CN(C)CC(C)C1(O)c1ccc(-c2ccnc3[nH]cc(Br)c23)cc1Cl (stereo not drawn) [Compound 125, 4-(4-(3-bromo-1H-pyrrolo[2,3-b]pyridin-4-yl)-2-chlorophenyl)-1,3,5-trimethylpiperidin-4-ol] | 0.0141 | 0.007 | 0.108 |  |  | 
9 | OC1(c2ccc(-c3ccnc4[nH]cc(-c5cccnc5)c34)cc2)CCNCC1 [Compound 126, 4-(4-(3-(pyridin-3-yl)-1H-pyrrolo[2,3-b]pyridin-4-yl)phenyl)piperidin-4-ol] | 0.0091 | 0.032 | 0.245 |  |  | 
10 | Cc1cncc(-c2c[nH]c3nccc(-c4ccc(C5(O)CCNCC5)cc4)c23)c1 [Compound 127, 4-(4-(3-(5-methylpyridin-3-yl)-1H-pyrrolo[2,3-b]pyridin-4-yl)phenyl)piperidin-4-ol] | 0.019 | 0.04 | 4.3 |  |  | 

Second part, led by results:

Row | IC50 (LATS1; [1]) [µM] | IC50 (LATS2; [2]) [µM] | IC50 (AKT; [3]) [µM] | Compound | IC50 (LATS1) [µM] | IC50 (LATS2) [µM] | IC50 (AKT) [µM]
11 | 0.0174 | 0.0248 | 1.27 | Cc1cc(-c2ccnc3[nH]cc(F)c23)cc(F)c1C1(O)CC2(CNC2)C1 [Compound 108, 6-(2-fluoro-4-(3-fluoro-1H-pyrrolo[2,3-b]pyridin-4-yl)-6-methylphenyl)-2-azaspiro[3.3]heptan-6-ol] |  |  | 
12 | 0.046 | 0.061 | 2.98 | OC1(c2c(F)cc(-c3ccnc4[nH]cc(F)c34)cc2F)CC2(CNC2)C1 [Compound 109, 6-(2,6-difluoro-4-(3-fluoro-1H-pyrrolo[2,3-b]pyridin-4-yl)phenyl)-2-azaspiro[3.3]heptan-6-ol] |  |  | 
13 | 0.023 | 0.019 | 0.39 | OC1(c2ccc(-c3ccnc4[nH]cc(F)c34)cc2)C[C@H]2CC[C@@H](C1)N2 (stereo partly drawn) [Compound 114, (1R,5S)-3-(4-(3-fluoro-1H-pyrrolo[2,3-b]pyridin-4-yl)phenyl)-8-azabicyclo[3.2.1]octan-3-ol] |  |  | 
14 | 0.0072 | 0.01 | 0.176 | OC1(c2ccc(-c3ccnc4[nH]ccc34)cc2)C[C@H]2CC[C@@H](C1)N2 (stereo partly drawn) [Compound 115, (1R,5S)-3-(4-(1H-pyrrolo[2,3-b]pyridin-4-yl)phenyl)-8-azabicyclo[3.2.1]octan-3-ol] |  |  | 
15 | 0.058 | 0.03 | 0.103 | CC1CC(O)(c2ccc(-c3ccnc4[nH]cc(Br)c34)cc2Cl)CC(C)N1 (stereo not drawn) [Compound 120, 4-(4-(3-bromo-1H-pyrrolo[2,3-b]pyridin-4-yl)-2-chlorophenyl)-2,6-dimethylpiperidin-4-ol] |  |  | 
16 | 0.0102 | 0.0146 | 0.307 | OC1(c2ccc(-c3ccnc4[nH]cc(Br)c34)cc2Cl)C2CNCC1C2 (stereo not drawn) [Compound 121, 6-(4-(3-bromo-1H-pyrrolo[2,3-b]pyridin-4-yl)-2-chlorophenyl)-3-azabicyclo[3.1.1]heptan-6-ol] |  |  | 
17 | 0.0053 | 0.0089 | 0.0512 | OC1(c2ccc(-c3ccnc4[nH]cc(Br)c34)cc2Cl)C[C@H]2CC[C@@H](C1)N2 (stereo partly drawn) [Compound 122, (1R,5S)-3-(4-(3-bromo-1H-pyrrolo[2,3-b]pyridin-4-yl)-2-chlorophenyl)-8-azabicyclo[3.2.1]octan-3-ol] |  |  | 
18 | 0.0057 | 0.0037 | 0.128 | CN1CCC(O)(c2ccc(-c3ccnc4[nH]cc(Br)c34)cc2)CC1 [Compound 124, 4-(4-(3-bromo-1H-pyrrolo[2,3-b]pyridin-4-yl)phenyl)-1-methylpiperidin-4-ol] |  |  | 
19 | 0.031 | 0.036 | 2.05 | CN1CCC(O)(c2ccc(-c3ccnc4[nH]cc(-c5cccnc5)c34)cc2)CC1 [Compound 128, 1-methyl-4-(4-(3-(pyridin-3-yl)-1H-pyrrolo[2,3-b]pyridin-4-yl)phenyl)piperidin-4-ol] |  |  | 
20 | 0.157 | 0.19 | 0.233 | CC1CN(C)CC(C)C1(O)c1ccc(-c2ccnc3[nH]cc(F)c23)cc1-c1ccccc1 (stereo not drawn) [Compound 129, 4-(5-(3-fluoro-1H-pyrrolo[2,3-b]pyridin-4-yl)-[1,1′-biphenyl]-2-yl)-1,3,5-trimethylpiperidin-4-ol] |  |  | 
21 | 0.146 | 0.381 | 2.26 | C[C@@H]1CNC[C@H](C)C1(O)c1cnc(-c2ccnc3[nH]cc(F)c23)cc1-c1ccccc1 (stereo partly drawn) [Compound 130, (3S,5R)-4-(6-(3-fluoro-1H-pyrrolo[2,3-b]pyridin-4-yl)-4-phenylpyridin-3-yl)-3,5-dimethylpiperidin-4-ol] |  |  | 
